# Earlier results in PubChem BioAssay AID1259409 (Chemical Carcinogenesis Research Information System (CCRIS), 2018).
# System: rodent chemically induced tumor inhibition, incidence and multiplicity
# Assay: CCRIS tumor inhibitor studies
smiles,measurement,setting,value
Cc1cc(C(C)(C)C)c(O)c(C(C)(C)C)c1,"tumour outcome (control, treated, inhibition, significance)","Carcinogen: 7,12-DIMETHYLBENZ[A]ANTHRACENE, 57-97-6, Dose [Inhibitor]: 200 MG ML 1 ML IN OLIVE OIL ONCE (STUDY DURATION: 18 WK), Route [Inhibitor]: GAVAGE, Species: RAT, Strain/Sex: SPRAGUE-DAWLEY/FEMALE, Target Tissue: Type of Lesion: MAMMARY GLAND: TUMOR, Dose [Carcinogen]: 12 MG IN 1 ML OLIVE OIL ADMINISTERED 1 HR AFTER INHIBITOR, Promoter: NONE USED","27/34 (79%), 5/18 (28%), 64%, p<0.01"
same,"tumour outcome (control, treated, inhibition, significance)","Carcinogen: 7,12-DIMETHYLBENZ[A]ANTHRACENE, 57-97-6, Dose [Inhibitor]: 1000 UG APPLIED 6 HR BEFORE, 5 MIN BEFORE, AND 6 HR AFTER DMBA (STUDY DURATION: 28 WK), Route [Inhibitor]: DERMAL, Species: MOUSE, Strain/Sex: CD-1/FEMALE, Target Tissue: Type of Lesion: SKIN: PAPILLOMA, Dose [Carcinogen]: 2.56 UG APPLIED ONCE 5 MIN AFTER INHIBITOR, Promoter: 12-O-TETRADECANOYLPHORBOL-13-ACETATE, 16561-29-8","(82%, 35%, 57%, not calculated"
same,"tumour outcome (control, treated, inhibition, significance)","Carcinogen: 7,12-DIMETHYLBENZ[A]ANTHRACENE, 57-97-6, Dose [Inhibitor]: 1000 UG APPLIED ONCE 5 MIN BEFORE DMBA (STUDY DURATION 28 WK), Route [Inhibitor]: DERMAL, Species: MOUSE, Strain/Sex: CD-1/FEMALE, Target Tissue: Type of Lesion: SKIN: PAPILLOMA, Dose [Carcinogen]: 2.56 UG APPLIED ONCE 5 MIN AFTER INHIBITOR, Promoter: 12-O-TETRADECANOYLPHORBOL-13-ACETATE, 16561-29-8","82%, 57%, 30%, not calculated"
same,"tumour outcome (control, treated, inhibition, significance)","Carcinogen: 7,12-DIMETHYLBENZ[A]ANTHRACENE, 57-97-6, Dose [Inhibitor]: 2500 MG/KG IN DIET STARTING 2 WK BEFORE UNTIL 1 WK AFTER CARCINOGEN ADMINISTRATION (STUDY DURATION: 32 WK), Route [Inhibitor]: ORAL, Species: RAT, Strain/Sex: SPRAGUE-DAWLEY/FEMALE, Target Tissue: Type of Lesion: MAMMARY GLAND: TUMOR, Dose [Carcinogen]: 8 MG IN 1 ML SESAME OIL ADMINISTERED ONCE, Promoter: NONE USED","88%, 68%, 23%, not significant"
same,"tumour outcome (control, treated, inhibition, significance)","Carcinogen: BENZO[A]PYRENE, 50-32-8, Dose [Inhibitor]: 5 MG/G DIET IN SESAME OIL (4%) 3/WK FOR 28 D SIMULTANEOUSLY WITH CARCINOGEN (STUDY DURATION: 21 WK), Route [Inhibitor]: ORAL, Species: MOUSE, Strain/Sex: A/HEJ/FEMALE, Target Tissue: Type of Lesion: FORESTOMACH: TUMOR, Dose [Carcinogen]: 1 MG/G DIET IN 4% SESAME OIL IN DIET 3/WK FOR 28 D, Promoter: NONE USED","12/12 (100%), 2/9 (22%), 78%, p<0.001"
same,"tumour outcome (control, treated, inhibition, significance)","Carcinogen: BENZO[A]PYRENE, 50-32-8, Dose [Inhibitor]: 10 MG/G DIET 3/WK FOR 28 D SIMULTANEOUSLY WITH CARCINOGEN (STUDY DURATION: 28 WK), Route [Inhibitor]: ORAL, Species: MOUSE, Strain/Sex: ICR/FEMALE, Target Tissue: Type of Lesion: FORESTOMACH: TUMOR, Dose [Carcinogen]: 0.3 MG/G DIET 3/WK FOR 28 D, Promoter: NONE USED","13/19 (68%), 10/20 (50%), 26%, not significant"
same,"tumour outcome (control, treated, inhibition, significance)","Carcinogen: DIETHYLNITROSAMINE, 55-18-5, Dose [Inhibitor]: 0, 50 MG/KG IN CORN OIL FOR DURATION OF STUDY BEGINNING 7 D PRIOR TO FIRST CARCINOGEN DOSE (STUDY DURATION: 6 MO), Route [Inhibitor]: GAVAGE, Species: RAT, Strain/Sex: BD6/FEMALE, Target Tissue: Type of Lesion: ESOPHAGUS: TUMOR, Dose [Carcinogen]: 80 MG/KG BW 1/WK FOR 6 WK, Promoter: NONE USED","14%, 0%, 100%, not significant"
same,"tumour outcome (control, treated, inhibition, significance)","Carcinogen: DIETHYLNITROSAMINE, 55-18-5, Dose [Inhibitor]: 0, 50 MG/KG IN CORN OIL FOR DURATION OF STUDY BEGINNING 7 D PRIOR TO FIRST CARCINOGEN DOSE (STUDY DURATION: 6 MO), Route [Inhibitor]: GAVAGE, Species: RAT, Strain/Sex: BD6/FEMALE, Target Tissue: Type of Lesion: ESOPHAGUS: TUMOR, Dose [Carcinogen]: 80 MG/KG BW 1/WK FOR 8 WK, Promoter: NONE USED","20%, 4%, 80%, not significant"
same,"tumour outcome (control, treated, inhibition, significance)","Carcinogen: DIETHYLNITROSAMINE, 55-18-5, Dose [Inhibitor]: 0, 50 MG/KG IN CORN OIL FOR DURATION OF STUDY BEGINNING 7 D PRIOR TO FIRST CARCINOGEN DOSE (STUDY DURATION: 6 MO), Route [Inhibitor]: GAVAGE, Species: RAT, Strain/Sex: BD6/FEMALE, Target Tissue: Type of Lesion: LIVER: TUMOR, Dose [Carcinogen]: 80 MG/KG BW 1/WK FOR 6 WK, Promoter: NONE USED","52%, 23%, 56%, not significant"
same,"tumour outcome (control, treated, inhibition, significance)","Carcinogen: DIETHYLNITROSAMINE, 55-18-5, Dose [Inhibitor]: 0, 50 MG/KG IN CORN OIL FOR DURATION OF STUDY BEGINNING 7 D PRIOR TO FIRST CARCINOGEN DOSE (STUDY DURATION: 6 MO), Route [Inhibitor]: GAVAGE, Species: RAT, Strain/Sex: BD6/FEMALE, Target Tissue: Type of Lesion: LIVER: TUMOR, Dose [Carcinogen]: 80 MG/KG BW 1/WK FOR 8 WK, Promoter: NONE USED","83%, 72%, 13%, not significant"
same,"tumour outcome (control, treated, inhibition, significance)","Carcinogen: HYDRAZINE SULFATE, 10034-93-2, Dose [Inhibitor]: 5000 PPM IN DIET STARTING 1 WK PRIOR TO ADMINISTRATION OF CARCINOGEN UNTIL END OF EXPERIMENT (STUDY DURATION: APPROXIMAT, Route [Inhibitor]: ORAL, Species: MOUSE, Strain/Sex: SWISS/MALE, FEMALE, Target Tissue: Type of Lesion: LIVER AND LUNG: COMBINED TUMORS, Dose [Carcinogen]: 1.1 MG/D 5 D/WK UNTIL 12 MO OF AGE, Promoter: NONE USED","24/29 (83%), 19/28 (68%), 18%, not significant"
same,"tumour outcome (control, treated, inhibition, significance)","Carcinogen: ISONIAZID, 54-85-3, Dose [Inhibitor]: 5000 PPM IN DIET STARTING 1 WK PRIOR TO ADMINISTRATION OF CARCINOGEN UNTIL END OF EXPERIMENT (STUDY DURATION: APPROXIMAT, Route [Inhibitor]: ORAL, Species: MOUSE, Strain/Sex: SWISS/MALE, FEMALE, Target Tissue: Type of Lesion: LIVER AND LUNG: COMBINED TUMORS, Dose [Carcinogen]: 1.1 MG/D 5 D/WK UNTIL 25 M OF AGE, Promoter: NONE USED","16/29 (55%), 4/20 (20%), 64%, p<0.05"
same,"tumour outcome (control, treated, inhibition, significance)","Carcinogen: ISONIAZID, 54-85-3, Dose [Inhibitor]: 5000 PPM IN DIET STARTING 1 WK PRIOR TO ADMINISTRATION OF CARCINOGEN UNTIL END OF EXPERIMENT (STUDY DURATION: APPROXIMAT, Route [Inhibitor]: ORAL, Species: MOUSE, Strain/Sex: SWISS/MALE, FEMALE, Target Tissue: Type of Lesion: LIVER AND LUNG: COMBINED TUMORS, Dose [Carcinogen]: 1.1 MG/D 5 D/WK UNTIL 25 MO OF AGE, Promoter: NONE USED","16/29 (55%), 5/20 (25%), 54%, p<0.05"
same,"tumour outcome (control, treated, inhibition, significance)","Carcinogen: N-BIS(2-HYDROXYPROPYL)NITROSAMINE, 53609-64-6, Dose [Inhibitor]: 0, 1% IN DIET FOR 30 WK BEGINNING POST CARCINOGEN TREATMENT (STUDY DURATION: 32 WK), Route [Inhibitor]: ORAL, Species: RAT, Strain/Sex: F344/MALE, Target Tissue: Type of Lesion: BLADDER: ADENOMA, Dose [Carcinogen]: 0.1% IN DRINKING WATER FOR 2 WK, Promoter: NONE USED","5%, 0%, 100%, not calculated"
same,"tumour outcome (control, treated, inhibition, significance)","Carcinogen: N-BIS(2-HYDROXYPROPYL)NITROSAMINE, 53609-64-6, Dose [Inhibitor]: 0, 1% IN DIET FOR 30 WK BEGINNING POST CARCINOGEN TREATMENT (STUDY DURATION: 32 WK), Route [Inhibitor]: ORAL, Species: RAT, Strain/Sex: F344/MALE, Target Tissue: Type of Lesion: KIDNEY: TUMOR, Dose [Carcinogen]: 0.1% IN DRINKING WATER FOR 2 WK, Promoter: NONE USED","10%, 30%, -200%, not calculated"
